Each block holds one compound with its values, some of them ahead of it. Active and inactive are the calls of the source. For most assays here, no stated cut-off is given here; in the data, actives have a measured IC50 and inactives only a lower limit.
How the values were obtained:
[1] = target: T1, Voltage-gated N-type calcium channel alpha-1B subunit/Amyloid beta A4 precursor protein-binding family A member 1 (Homo sapiens, UniProt Q00975+Q02410); experiment: disruptors of Mint-PDZ/N-type channel peptide interaction – biochemical, HTRF, SAR follow-up (AID 2489); type: functional
T1 sequence (Q00975 whole entry): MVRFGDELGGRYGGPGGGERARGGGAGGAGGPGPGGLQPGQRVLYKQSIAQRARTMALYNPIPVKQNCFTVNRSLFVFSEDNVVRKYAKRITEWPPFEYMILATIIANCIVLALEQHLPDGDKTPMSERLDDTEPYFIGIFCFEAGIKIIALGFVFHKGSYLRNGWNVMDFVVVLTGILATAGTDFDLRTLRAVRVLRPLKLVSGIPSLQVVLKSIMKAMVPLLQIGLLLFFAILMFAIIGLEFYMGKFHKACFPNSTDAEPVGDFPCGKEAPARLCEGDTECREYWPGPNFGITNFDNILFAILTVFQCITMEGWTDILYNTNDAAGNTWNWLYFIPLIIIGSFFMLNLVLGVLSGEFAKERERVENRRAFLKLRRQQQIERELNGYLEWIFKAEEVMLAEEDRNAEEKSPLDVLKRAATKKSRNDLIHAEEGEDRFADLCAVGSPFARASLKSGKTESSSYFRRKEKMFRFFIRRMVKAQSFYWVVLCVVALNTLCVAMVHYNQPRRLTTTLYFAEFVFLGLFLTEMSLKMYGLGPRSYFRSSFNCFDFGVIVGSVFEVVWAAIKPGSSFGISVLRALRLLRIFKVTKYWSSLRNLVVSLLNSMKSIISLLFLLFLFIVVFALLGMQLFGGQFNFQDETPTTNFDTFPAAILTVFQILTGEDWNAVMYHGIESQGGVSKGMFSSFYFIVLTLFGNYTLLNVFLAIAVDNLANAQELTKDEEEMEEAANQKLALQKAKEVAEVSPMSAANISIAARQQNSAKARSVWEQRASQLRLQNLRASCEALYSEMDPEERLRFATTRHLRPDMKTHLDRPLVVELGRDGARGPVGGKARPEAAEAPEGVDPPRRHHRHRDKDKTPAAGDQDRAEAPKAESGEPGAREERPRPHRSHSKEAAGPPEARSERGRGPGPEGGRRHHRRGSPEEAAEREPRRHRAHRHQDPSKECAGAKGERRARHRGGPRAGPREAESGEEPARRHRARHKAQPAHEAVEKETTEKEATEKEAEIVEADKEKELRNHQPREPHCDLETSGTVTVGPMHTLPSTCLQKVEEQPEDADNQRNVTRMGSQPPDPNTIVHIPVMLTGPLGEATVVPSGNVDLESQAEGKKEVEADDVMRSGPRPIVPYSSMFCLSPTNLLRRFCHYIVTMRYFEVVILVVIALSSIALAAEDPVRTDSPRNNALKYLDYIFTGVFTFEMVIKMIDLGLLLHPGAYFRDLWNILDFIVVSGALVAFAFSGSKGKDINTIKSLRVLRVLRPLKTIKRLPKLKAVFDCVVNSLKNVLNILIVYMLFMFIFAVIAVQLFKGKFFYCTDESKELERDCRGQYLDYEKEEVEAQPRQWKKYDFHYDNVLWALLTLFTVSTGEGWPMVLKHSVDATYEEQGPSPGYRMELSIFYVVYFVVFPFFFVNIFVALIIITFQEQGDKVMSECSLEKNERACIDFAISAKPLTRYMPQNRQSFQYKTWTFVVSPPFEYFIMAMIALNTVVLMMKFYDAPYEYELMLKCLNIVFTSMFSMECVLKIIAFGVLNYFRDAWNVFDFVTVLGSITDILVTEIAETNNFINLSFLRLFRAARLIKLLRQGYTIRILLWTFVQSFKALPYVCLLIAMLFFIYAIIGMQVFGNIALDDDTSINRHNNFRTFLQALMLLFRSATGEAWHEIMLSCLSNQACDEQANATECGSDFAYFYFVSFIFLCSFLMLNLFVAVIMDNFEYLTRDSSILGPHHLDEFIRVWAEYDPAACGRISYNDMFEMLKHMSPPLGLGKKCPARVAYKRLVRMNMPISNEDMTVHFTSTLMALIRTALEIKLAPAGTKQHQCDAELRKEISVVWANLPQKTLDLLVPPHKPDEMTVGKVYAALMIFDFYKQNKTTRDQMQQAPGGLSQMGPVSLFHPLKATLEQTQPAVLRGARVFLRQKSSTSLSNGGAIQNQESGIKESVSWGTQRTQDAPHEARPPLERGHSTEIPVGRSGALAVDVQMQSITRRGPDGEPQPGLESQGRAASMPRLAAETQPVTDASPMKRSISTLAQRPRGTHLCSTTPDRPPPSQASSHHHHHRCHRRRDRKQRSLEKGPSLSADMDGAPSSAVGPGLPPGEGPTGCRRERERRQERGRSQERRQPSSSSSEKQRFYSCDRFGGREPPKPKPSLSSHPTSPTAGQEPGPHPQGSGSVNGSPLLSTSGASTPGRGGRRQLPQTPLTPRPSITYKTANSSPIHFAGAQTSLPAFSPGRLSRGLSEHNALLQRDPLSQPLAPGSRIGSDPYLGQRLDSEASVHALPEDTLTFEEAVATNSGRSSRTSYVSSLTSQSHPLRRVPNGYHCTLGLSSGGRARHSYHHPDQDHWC
T1 sequence (Q02410 whole entry): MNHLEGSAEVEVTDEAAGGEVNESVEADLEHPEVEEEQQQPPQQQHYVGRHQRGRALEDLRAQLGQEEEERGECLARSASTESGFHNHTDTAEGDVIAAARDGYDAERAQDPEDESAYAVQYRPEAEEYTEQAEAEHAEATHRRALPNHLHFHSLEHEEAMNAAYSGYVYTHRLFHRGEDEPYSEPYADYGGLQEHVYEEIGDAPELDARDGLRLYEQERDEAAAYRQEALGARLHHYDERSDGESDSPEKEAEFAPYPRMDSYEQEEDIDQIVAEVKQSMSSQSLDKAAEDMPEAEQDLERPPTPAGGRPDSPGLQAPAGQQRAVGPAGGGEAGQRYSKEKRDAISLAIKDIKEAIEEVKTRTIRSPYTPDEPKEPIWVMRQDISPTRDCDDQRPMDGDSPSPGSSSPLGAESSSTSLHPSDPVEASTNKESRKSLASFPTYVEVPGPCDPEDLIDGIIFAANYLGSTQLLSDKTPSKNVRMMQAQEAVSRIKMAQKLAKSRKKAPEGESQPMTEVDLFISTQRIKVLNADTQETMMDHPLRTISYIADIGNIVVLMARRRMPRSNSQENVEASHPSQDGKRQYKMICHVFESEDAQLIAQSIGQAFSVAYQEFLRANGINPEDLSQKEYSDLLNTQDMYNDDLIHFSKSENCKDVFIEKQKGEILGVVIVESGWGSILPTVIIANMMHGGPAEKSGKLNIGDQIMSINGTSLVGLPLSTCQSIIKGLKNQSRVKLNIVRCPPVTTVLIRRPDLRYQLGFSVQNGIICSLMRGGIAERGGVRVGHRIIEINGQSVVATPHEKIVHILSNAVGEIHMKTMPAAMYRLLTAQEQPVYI

[2] = target: SUMO E1/E2 (Homo sapiens, UniProt P63279+Q9UBE0+Q9UBT2); experiment: SAR analysis of SUMOylation using HTRF in an in-Vitro dose response assay. [Related pubchem assays (depositor defined):AID2006, AID2011, AID2018, AID2069, AID2658]; type: functional
SUMO E1/E2, sequence (Q9UBE0 whole entry): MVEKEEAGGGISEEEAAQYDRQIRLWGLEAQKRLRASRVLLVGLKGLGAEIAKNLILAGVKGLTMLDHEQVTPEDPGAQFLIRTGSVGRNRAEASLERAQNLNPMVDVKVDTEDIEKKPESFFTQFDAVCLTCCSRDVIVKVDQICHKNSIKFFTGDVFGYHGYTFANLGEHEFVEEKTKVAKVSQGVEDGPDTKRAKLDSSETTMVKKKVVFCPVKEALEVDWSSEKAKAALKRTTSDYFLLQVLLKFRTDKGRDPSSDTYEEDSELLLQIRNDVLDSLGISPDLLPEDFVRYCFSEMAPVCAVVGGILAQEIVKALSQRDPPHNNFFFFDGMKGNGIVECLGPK
SUMO E1/E2, sequence (Q9UBT2 whole entry): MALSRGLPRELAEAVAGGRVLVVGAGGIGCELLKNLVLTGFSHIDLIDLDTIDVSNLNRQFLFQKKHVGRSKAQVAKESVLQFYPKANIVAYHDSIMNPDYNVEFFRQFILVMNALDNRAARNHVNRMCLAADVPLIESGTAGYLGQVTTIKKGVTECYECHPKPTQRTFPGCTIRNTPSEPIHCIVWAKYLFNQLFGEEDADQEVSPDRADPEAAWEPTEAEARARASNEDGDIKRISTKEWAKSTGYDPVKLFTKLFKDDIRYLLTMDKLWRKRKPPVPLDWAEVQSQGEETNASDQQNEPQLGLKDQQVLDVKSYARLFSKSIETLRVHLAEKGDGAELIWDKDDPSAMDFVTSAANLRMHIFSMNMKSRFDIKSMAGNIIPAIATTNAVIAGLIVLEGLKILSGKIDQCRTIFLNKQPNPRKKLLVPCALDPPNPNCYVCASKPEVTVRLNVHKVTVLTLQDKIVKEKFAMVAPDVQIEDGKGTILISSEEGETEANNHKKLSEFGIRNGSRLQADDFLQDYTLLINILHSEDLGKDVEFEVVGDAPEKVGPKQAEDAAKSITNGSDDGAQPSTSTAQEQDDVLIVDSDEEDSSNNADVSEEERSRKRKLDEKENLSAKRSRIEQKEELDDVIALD
SUMO E1/E2, sequence (P63279 whole entry): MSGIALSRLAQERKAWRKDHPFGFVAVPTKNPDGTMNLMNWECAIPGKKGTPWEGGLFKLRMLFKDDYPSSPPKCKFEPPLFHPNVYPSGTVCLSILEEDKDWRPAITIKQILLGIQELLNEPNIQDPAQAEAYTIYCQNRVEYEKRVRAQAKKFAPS

[3] = target: T1, Voltage-gated N-type calcium channel alpha-1B subunit/Amyloid beta A4 precursor protein-binding family A member 1; experiment: disruptors of Mint-PDZ/N-type channel peptide interaction – biochemical, HTRF, set 2, SAR follow-up (AID 434980); type: functional
[4] = target: Tumor necrosis factor (Homo sapiens, UniProt P01375); experiment: analog potency on TNFa NF-kB signaling – cell-based, set 3, SAR follow-up (AID 2801); type: functional
Tumor necrosis factor, sequence (P01375 whole entry): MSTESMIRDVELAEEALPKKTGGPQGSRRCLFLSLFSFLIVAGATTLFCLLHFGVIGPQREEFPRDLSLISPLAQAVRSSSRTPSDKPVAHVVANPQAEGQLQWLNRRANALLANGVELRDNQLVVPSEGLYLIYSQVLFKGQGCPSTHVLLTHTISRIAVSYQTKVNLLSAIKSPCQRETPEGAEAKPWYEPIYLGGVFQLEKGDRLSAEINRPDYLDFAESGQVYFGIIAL

[5] = system: HEK293; experiment: SAR analysis of compounds that are cytotoxic to HEK293 - Set 3. [Related pubchem assays (depositor defined):AID1575, AID1578, AID1848, AID1849, AID2001, AID2333, AID2334, AID2335, AID2337, AID2469]; type: functional, cell-based; details: Homo sapiens
[6] = target: Nucleotide-binding oligomerization domain-containing protein 1 (Homo sapiens, UniProt Q9Y239); experiment: SAR analysis of compounds that inhibit NOD1 - Set 3. [Related pubchem assays (depositor defined):AID1566, AID1575, AID1578, AID1849, AID1852, AID2333, AID2335, AID2466]; type: functional
[7] = target: Nucleotide-binding oligomerization domain-containing protein 2 (Homo sapiens, UniProt Q9HC29); experiment: inhibition of MDP-driven NOD2 NF-kB reporter – cell-based, set 3, SAR follow-up (AID 2799); type: functional
[8] = target: Phosphomannomutase 2 (Homo sapiens, UniProt O15305); experiment: Counter screen SAR assay for PMM2 inhibitors via a fluorescence intensity assay. [Related pubchem assays (depositor defined):AID1545, AID1574]
[9] = target: T2, Mannose-6-phosphate isomerase (Homo sapiens, UniProt P34949); experiment: phosphomannose isomerase inhibition – biochemical, fluorescence intensity, confirmation (AID 1535)
T2 sequence (P34949 whole entry): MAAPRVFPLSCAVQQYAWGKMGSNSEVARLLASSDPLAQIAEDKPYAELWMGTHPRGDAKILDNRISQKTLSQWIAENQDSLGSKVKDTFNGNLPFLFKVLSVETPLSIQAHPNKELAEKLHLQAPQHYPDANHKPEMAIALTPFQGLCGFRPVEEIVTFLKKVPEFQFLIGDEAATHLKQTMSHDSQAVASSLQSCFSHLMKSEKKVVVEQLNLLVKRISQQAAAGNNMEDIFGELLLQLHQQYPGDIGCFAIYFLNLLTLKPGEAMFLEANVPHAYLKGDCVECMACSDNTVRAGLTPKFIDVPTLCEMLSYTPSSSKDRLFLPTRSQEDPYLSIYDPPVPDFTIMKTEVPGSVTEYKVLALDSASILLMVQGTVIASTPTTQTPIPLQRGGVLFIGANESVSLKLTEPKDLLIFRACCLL

[10] = target: Phosphoethanolamine/phosphocholine phosphatase (Homo sapiens, UniProt Q8TCT1); experiment: SAR assay for compounds that inhibit PHOSPHO1. [Related pubchem assays (depositor defined):AID1545, AID1565, AID1574]
Phosphoethanolamine/phosphocholine phosphatase, sequence (Q8TCT1 whole entry): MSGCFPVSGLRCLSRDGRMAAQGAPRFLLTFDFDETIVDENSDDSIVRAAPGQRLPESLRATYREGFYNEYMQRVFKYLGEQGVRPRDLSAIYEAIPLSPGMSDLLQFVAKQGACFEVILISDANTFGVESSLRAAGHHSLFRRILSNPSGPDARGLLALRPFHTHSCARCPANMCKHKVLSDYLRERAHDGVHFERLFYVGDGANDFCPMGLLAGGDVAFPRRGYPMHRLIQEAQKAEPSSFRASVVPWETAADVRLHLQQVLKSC

[11] = target: T3, Tyrosine-protein phosphatase non-receptor type 22 (Homo sapiens, UniProt Q9Y2R2); type: functional
T3 sequence (Q9Y2R2 whole entry): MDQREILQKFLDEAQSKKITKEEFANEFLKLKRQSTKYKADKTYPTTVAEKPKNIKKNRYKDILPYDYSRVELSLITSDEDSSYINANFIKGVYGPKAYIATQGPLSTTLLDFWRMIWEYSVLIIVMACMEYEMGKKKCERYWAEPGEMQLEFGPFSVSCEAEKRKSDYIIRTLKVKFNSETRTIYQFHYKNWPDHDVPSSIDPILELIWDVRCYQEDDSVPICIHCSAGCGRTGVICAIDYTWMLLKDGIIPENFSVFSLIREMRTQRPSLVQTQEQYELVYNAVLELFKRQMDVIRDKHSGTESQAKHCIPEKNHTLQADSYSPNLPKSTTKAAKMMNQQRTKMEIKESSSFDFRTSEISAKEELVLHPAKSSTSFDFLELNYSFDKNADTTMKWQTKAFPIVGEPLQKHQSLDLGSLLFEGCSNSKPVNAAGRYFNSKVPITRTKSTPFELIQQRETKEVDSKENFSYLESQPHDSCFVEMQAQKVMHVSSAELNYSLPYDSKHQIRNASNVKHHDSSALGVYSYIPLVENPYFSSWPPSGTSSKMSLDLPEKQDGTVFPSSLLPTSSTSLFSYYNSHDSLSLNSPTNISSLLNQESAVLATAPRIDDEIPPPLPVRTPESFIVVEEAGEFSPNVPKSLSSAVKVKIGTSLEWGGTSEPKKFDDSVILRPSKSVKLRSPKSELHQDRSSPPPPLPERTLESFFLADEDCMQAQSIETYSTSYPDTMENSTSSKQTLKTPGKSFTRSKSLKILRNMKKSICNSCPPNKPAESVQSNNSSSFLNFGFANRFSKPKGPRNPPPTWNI

[12] = target: Tyrosine-protein phosphatase non-receptor type 7 (Homo sapiens, UniProt P35236); type: functional
[13] = target: T3, Tyrosine-protein phosphatase non-receptor type 22; type: functional; remark: listed apart in the source

IC50 [1]: > 56.8 µM (inactive)
IC50 [2]: 38.6 µM (active)
IC50 [3]: 23 µM (active)
SMILES: COc1ccccc1CNC(=O)CCOC(=O)c1cc(-c2ccco2)nc2ccccc12

SMILES: CN(C(=O)c1ccccc1)C(c1ccccc1)c1c[nH]c2ccccc12 (stereo not drawn)
IC50 [4]: > 20 µM (inactive)
IC50 [5]: > 20 µM (inactive)
IC50 [6]: > 20 µM (inactive)
IC50 [7]: 12.4 µM (active)

IC50 [8]: > 100 µM (inactive)
IC50 [9]: > 50 µM (inactive)
IC50 [10]: 3.6 µM (inactive)
SMILES: O=C1c2ccccc2C(=O)c2c1ccc1c(=O)n(-c3cccc([N+](=O)[O-])c3)sc21

IC50 [11]: > 79.4 µM (inactive)
IC50 [12]: > 79.4 µM (inactive)
IC50 [13]: > 79.4 µM (inactive)
SMILES: O=C1C=C(NCCNc2c(F)c(F)c(CO)c(F)c2F)CCC1

From ChEMBL document CHEMBL1201862, “PubChem BioAssay data set” (2004)
